# Tested on: Puccinia recondita
# Assay: Greenhouse test on wheat infected with Puccinia recondita at full and reduced dose rate (Example 12)
# Type: in vivo, Puccinia recondita on wheat (species "Kanzler")
# Details: for Infected leaf area at 25% dose rate: 2.5 g/ha pesticide (epoxiconazole) and 5 g/ha adjuvant; for Infected leaf area at 100% dose rate: 10 g/ha pesticide (epoxiconazole) and 20 g/ha adjuvant
# Procedure: The biological activity was assessed in a greenhouse on wheat (species “Kanzler”), which was infected with Puccinia recondita at two leafs stage and incubated for three days at high humidity. The plants were sprayed (spray volume 200 l/ha) with a composition comprising 50 ppm (10 g/ha) epoxiconazole and 100 ppm (20 g/ha) of the respective adjuvant samples from Example 1-9. In the comparative example no adjuvant was added. The plants were further cultivated for ten days at 20-24° C. and 60-90% relative humidity. Finally, the percentage of the infected leaf area was visually inspected. Each value was based on three replicates.
# The biological activity was assessed in a greenhouse as described in Example 11 with a dose rate of 10 g/ha pesticide and 20 g/ha adjuvant (“100%” in Table 4) and a reduced dose rate of 2.5 g/ha pesticide and 5 g/ha adjuvant (“25%” in Table 4). In this test the adjuvants from Example 1 (formula A), Example 2 (formula B) and as comparative adjuvant butyl endcapped ethoxylated (5EO) n-dodecanol (formula C) were compared. All three compounds are butyl endcapped. Formula A and C have the same degree of ethoxylation of five ethylene oxide (EO) units. Formula B (only 3 EO) and C have a similar overall molecule weight. n-C12-18—[O—CH2—CH2]5—O—CH2—O—CH2—CH2—O—Bu (A) n-C12-18—[O—CH2—CH2]3—O—CH2—O—CH2—CH2—O—Bu (B) n-C12[O—CH2—CH2]5—Bu (C)
Substance,Infected leaf area at 25% dose rate,Infected leaf area at 100% dose rate
n-C12-18—[O—CH2—CH2]5—O—CH2—O—CH2—CH2—O—Bu [(A)],23%,7%
"butyl endcapped ethoxylated (5EO) n-dodecanol [(C), reference compound]",38%,8%
n-C12-18—[O—CH2—CH2]3—O—CH2—O—CH2—CH2—O—Bu [(B)],13%,6%

# — patent US11051510B2, “Asymmetric formales and acetales as adjuvants for crop protection” (BASF SE, priority 2014, dated 2021)
